{"source": "patent US6498145B1", "about": "“Use of purified SDG as a hypotensive (vasodilator) agent” (University of Saskatchewan Technologies Incorporated, priority 2000, dated 2002)", "format_in_all_cases": "in vivo, rat", "key": {"[1]": {"test_system": "anesthetized normotensive rats", "experiment": "Blood pressure and heart rate of anesthetized normotensive rats, SDG intravenously", "conditions": "for maximum fall in mean B.P.: 15 minutes after administration", "protocol": "The effects of SDG in the doses of 10 mg, 15 mg, 20 mg and 30 mg/kg given intravenously were investigated on the blood pressure (B.P.) and heart rate of anesthetized normotensive rats. The number of rats used were 8, 3, 9, and 3 respectively for the doses of SDG (10 mg, 15 mg, 20 mg and 30 mg/kg body wt.). The maximum fall in mean B.P. were approximately 38%, 29%, 46% and 57% with 10 mg, 15 mg, 20 mg and 30 mg/kg dose of SDG respectively at 15 minutes after administration of SDG. After 15 minutes the blood pressure tended to recover but the recovery was not complete. The mean blood pressure at the end of three hours after SDG administration were approximately 25% lower than control values. The changes in the systolic and diastolic pressure were similar to the mean blood pressure with various doses of SDG. […] One would expect a very long duration of hypotensive effect when SDG is given orally."}, "angiotensin II receptor": {"test_system": "angiotensin II receptor", "experiment": "Angiotensin II response on arterial pressure before and after SDG", "conditions": "SDG 10 mg/kg intravenously", "protocol": "To determine if the SDG-induced fall in the blood pressure is mediated through the blockade of angiotensin II receptor, experiments were carried out in normotensive Sprague-Dawley rats. Effects of angiotensin II (0.2 μg/kg, I.V.) given before and after 15 minutes, 30 minutes and 60 minutes of SDG (10 mg/kg) administered intravenously were investigated on the arterial pressure of six anesthetized Sprague-Dawley rats. […] The response of angiotensin II on the mean arterial pressure in untreated rats remained unaltered."}, "[2]": {"test_system": "anesthetized spontaneous hypertensive rats (SHR)", "experiment": "Blood pressure of anesthetized spontaneous hypertensive rats, SDG intraperitoneally", "conditions": "for maximum fall in the blood pressure: 30 minutes; for percent decrease in blood pressures: end of four hours", "protocol": "(§1) The effects of SDG on the arterial pressure of anesthetized spontaneous hypertensive rats (SHR) were investigated to determine (a) if it is effective in lowering blood pressure to the same extent as in normotensive Sprague-Dawley rats; (b) if it is effective when given by intraperitoneal route; (c) if the effect is dose-dependent.\n(ii) Effects of SDG in the doses of 5 mg, 10 mg, 50 mg and 200 mg/kg given intraperitoneally were investigated on blood pressure of anesthetized SHR for four hours. The maximum fall in the blood pressure were approximately 7, 37, 50 and 48% respectively with 5 mg, 10 mg, 50 mg and 200 mg of SDG at 30 minutes. At the end of four hours of SDG administration the percent decreases in blood pressures were 31, 42, 39 and 37 respectively with these four doses of SDG."}, "[3]": {"test_system": "angiotensin converting enzyme (ACE)", "experiment": "Angiotensin I-induced rise in blood pressure before and after SDG", "conditions": "SDG 10 mg/kg intravenously", "protocol": "Further experiments were conducted to determine if the SDG-induced fall in the blood pressure is mediated through inhibition of angiotensin converting enzyme (ACE). Angiotensin I is converted to angiotensin II which is vasoconstrictor and raises blood pressure. If SDG lowers blood pressure by inhibiting ACE, then SDG would reduce/prevent the angiotensin I-induced rise in the blood pressure. Experiments were conducted in six normotensive Sprague-Dawley rats. […] However, the effects of angiotensin on arterial pressure of untreated rats remained unaltered. SDG (10 mg/kg) produced a marked fall in the mean arterial pressure."}, "[4]": {"test_system": "anesthetized spontaneous hypertensive rats", "experiment": "Blood pressure of anesthetized spontaneous hypertensive rats, SDG orally", "conditions": "SHR, 100 mg/kg orally", "protocol": "(iii) Effects of SDG (100 mg/kg body wt.) given orally were investigated on the blood pressure of anesthetized spontaneous hypertensive rats for four hours. The blood pressures began falling at 15 minutes of SDG administration and maximum fall occurred after three hours. The decreases were of similar magnitude for systolic, diastolic and mean arterial pressures. The systolic, diastolic and mean arterial pressures respectively were 243 mmHg, 176 mmHg and 198 mmHg before administration of SDG. SDG reduced the blood pressure by approximately 25%."}, "[5]": {"test_system": "anesthetized normotensive rats", "experiment": "Hypotensive effect of SDG after premedication with blockers/inhibitors in anesthetized normotensive rats", "protocol": "FIG. 5 is a graph showing changes in the mean arterial blood pressure (B.P.) with SDG (20 mg/kg, intravenously) in the absence or presence of methylene blue (MB) (0.5 mg/kg); methylene blue was given 15 minutes prior to administration of SDG and results are expressed as mean±S.E. *p<0.05, comparison of values at various times with respect to “0” time.\nFIG. 9 is a graph showing effects of SDG in the absence or presence of pyrilamine on the mean arterial blood pressure (B.P.) in anesthetized normotensive rats. Pyrilamine was given 15 minutes before administration of SDG. The results are expressed as mean±S.E. *p<0.05, comparison of values at various times with respect to “0” time.\nHeart rate was not affected by methylene blue (FIG. 8)."}, "[6]": {"test_system": "anesthetized spontaneous hypertensive rats (SHR)", "experiment": "Blood pressure of anesthetized spontaneous hypertensive rats, SDG intravenously", "protocol": "as §1\n(i) Effects of SDG in the doses of 1 mg, 3 mg and 15 mg/kg given intravenously were investigated on the blood pressures of anesthetized spontaneous hypertensive rats (SHR). The maximum fall in the blood pressure occurred between 15 to 30 minutes of SDG administration after which the blood pressure tended to recover. However, the recovery was short lived. The percent decreases in blood pressures at 30 minutes after SDG were 19, 25 and 31 respectively with 1 mg, 3 mg and 15 mg/kg of SDG. At the end of 4 hours of SDG treatment, the percent decreases were 34, 43 and 36 respectively with 1 mg, 3 mg and 15 mg dose. The fall in the blood pressure initially (at 15 minutes) was maximum with high dose of SDG."}, "[7]": {"conditions": "normotensive Sprague-Dawley rats"}}, "data": [{"smiles": "COc1cc(C[C@@H](CO[C@@H]2O[C@H](CO)[C@@H](O)[C@H](O)[C@H]2O)[C@H](CO[C@@H]2O[C@H](CO)[C@@H](O)[C@H](O)[C@H]2O)Cc2ccc(O)c(OC)c2)ccc1O", "note": "[SDG, secoisolariciresinol diglucoside]", "values": [{"measurement": "maximum fall in mean B.P.", "setting": "[1]; 10 mg/kg intravenously, normotensive rats", "value": "approximately 38%"}, {"measurement": "maximum fall in mean B.P.", "setting": "[1]; 15 mg/kg intravenously, normotensive rats", "value": "~29", "unit": "%"}, {"measurement": "maximum fall in mean B.P.", "setting": "[1]; 20 mg/kg intravenously, normotensive rats", "value": "~46", "unit": "%"}, {"measurement": "maximum fall in mean B.P.", "setting": "[1]; 30 mg/kg intravenously, normotensive rats", "value": "~57", "unit": "%"}, {"measurement": "heart rate", "setting": "[1]; any dose (10-30 mg/kg intravenously), normotensive rats", "value": "not significantly altered"}, {"measurement": "mean blood pressure lower than control values", "setting": "[1]; end of three hours after SDG administration, 10-30 mg/kg intravenously", "value": "approximately 25%"}, {"measurement": "mean arterial pressure", "setting": "angiotensin II receptor; [7]", "value": "reduced the mean arterial pressure"}, {"measurement": "angiotensin II response on arterial pressure", "setting": "angiotensin II receptor; angiotensin II 0.2 μg/kg I.V., 15, 30, 60 minutes", "value": "moderately reduced"}, {"measurement": "maximum fall in the blood pressure", "setting": "[2]; 5 mg/kg intraperitoneally", "value": "approximately 7%"}, {"measurement": "percent decrease in blood pressures", "setting": "[2]; 5 mg/kg intraperitoneally", "value": 31, "unit": "%"}, {"measurement": "maximum fall in the blood pressure", "setting": "[2]; 10 mg/kg intraperitoneally", "value": "~37", "unit": "%"}, {"measurement": "percent decrease in blood pressures", "setting": "[2]; 10 mg/kg intraperitoneally", "value": 42, "unit": "%"}, {"measurement": "maximum fall in the blood pressure", "setting": "[2]; 50 mg/kg intraperitoneally", "value": "~50", "unit": "%"}, {"measurement": "percent decrease in blood pressures", "setting": "[2]; 50 mg/kg intraperitoneally", "value": 39, "unit": "%"}, {"measurement": "maximum fall in the blood pressure", "setting": "[2]; 200 mg/kg intraperitoneally", "value": "~48", "unit": "%"}, {"measurement": "percent decrease in blood pressures", "setting": "[2]; 200 mg/kg intraperitoneally", "value": 37, "unit": "%"}, {"measurement": "mean arterial pressure", "setting": "[3]; [7]", "value": "marked fall"}, {"measurement": "response of angiotensin I on the mean arterial pressure", "setting": "[3]; angiotensin I 0.2 μg/kg intravenously, Sprague-Dawley rats, 60 minutes", "value": "marked reduction"}, {"measurement": "time at which blood pressures began falling", "setting": "[4]", "value": 15, "unit": "min"}, {"measurement": "reduction of blood pressure", "setting": "[4]; observed for four hours, systolic, diastolic and mean similar", "value": "approximately 25%"}, {"measurement": "hypotensive effect of SDG after premedication with NG-monomethyl-L-arginine", "setting": "[5]; NG-monomethyl-L-arginine (inhibitor of nitric oxide synthase)", "value": "not prevented"}, {"measurement": "hypotensive effect of SDG in presence of methylene blue", "setting": "[5]; SDG 20 mg/kg intravenously, methylene blue 0.5 mg/kg 15 minutes prior", "value": "completely prevented"}, {"measurement": "heart rate in presence of pyrilamine", "setting": "[5]; SDG with pyrilamine", "value": "practically unchanged"}, {"measurement": "hypotensive effect of SDG after premedication with atropine", "setting": "[5]; atropine (acetylcholine receptor blocker)", "value": "not prevented"}, {"measurement": "hypotensive effect of SDG after premedication with indomethacin", "setting": "[5]; indomethacin (inhibitor of cyclooxygenase)", "value": "not prevented"}, {"measurement": "hypotensive effect of SDG in presence of pyrilamine", "setting": "[5]; pyrilamine (histamine receptor blocker) 15 minutes before SDG", "value": "partly prevented"}, {"measurement": "percent decrease in blood pressures", "setting": "[6]; 1 mg/kg intravenously, 30 minutes after SDG", "value": 19, "unit": "%"}, {"measurement": "percent decrease in blood pressures", "setting": "[6]; 1 mg/kg intravenously, end of 4 hours", "value": 34, "unit": "%"}, {"measurement": "percent decrease in blood pressures", "setting": "[6]; 3 mg/kg intravenously, 30 minutes after SDG", "value": 25, "unit": "%"}, {"measurement": "percent decrease in blood pressures", "setting": "[6]; 3 mg/kg intravenously, end of 4 hours", "value": 43, "unit": "%"}, {"measurement": "percent decrease in blood pressures", "setting": "[6]; 15 mg/kg intravenously, 30 minutes after SDG", "value": 31, "unit": "%"}, {"measurement": "percent decrease in blood pressures", "setting": "[6]; 15 mg/kg intravenously, end of 4 hours", "value": 36, "unit": "%"}, {"measurement": "time of maximum fall in the blood pressure", "setting": "[6]; 1-15 mg/kg intravenously", "value": "15 to 30", "unit": "min"}]}]}
